Laboratory results: publication PMC9865040, “Design of A3B-Porphyrin Conjugates with Terpyridine as Potential Theranostic Agents: Synthesis, Complexation with Fe(III), Gd(III), and Photodynamic Activity” (Pharmaceutics, 2023)

How the values were obtained:
[1] = tested on: NKE cells (human kidney epithelium); assay: Comet assay (DNA damage test); format: cell-based; conditions: 1 μg/mL, 24 h, positive control
Experimental: Comet assay. NKE cells (human kidney epithelium) were seeded into 24-well plates at 8 × 10^4 per well and incubated in DMEM medium (PanEco, Russia) with penicillin-streptomycin (50 units/mL) (PanEco, Russia) and 10% fetal bovine serum (PanEco, Russia) at 37 °C in 5% CO2. After 24 h, the medium was changed to a similar one but without serum to avoid interaction of the studied substance with it. […] Cells serving as positive controls were treated with ifosfamide (Baxter Oncology, Germany) at a final concentration of 1 μg/mL. Cell culture with the substances was left for 24 h at 37 °C in 5% CO2. Once this time was reached, the cells were removed from the substrate and washed twice with phosphate-salt buffer (PBS). Direct Comet assay was performed using OxiSelect™ Comet Assay Kit (Cell Biolabs, USA) according to the manufacturer’s protocol. Samples were stained with fluorescent dye Sybr Gold, Invitrogene, USA, and examined with a Zeiss microscope using a filter for FITC-fluorescence. All necessary measurements were performed using the computer program CometScore2.0. Statistics were calculated using Student’s t-test using the Microsoft Excel software package.
During the study, the NKE cells were seeded in 24-well plates. […] After this time, the assay itself was performed using OxiSelect™ Comet Assay Kit (Cell Biolabs, San Diego, CA, USA). […]

[2] = tested on: Hep2 cell line (human laryngeal cancer); assay: Cell viability study (MTT-test) with and without irradiation; format: cell-based
Experimental: (§1) Biological activity. Cell viability study (MTT-test) on Hep2 (human laryngeal cancer) and NKE (normal kidney epithelial) cell lines. For this study, cells were plated into 96-well plates (BD Micro-FinePlus, Franklin Lakes, USA) (6 × 10^3 cells in 180 μL of culture medium) and incubated for 24 h at 37 °C in 5% CO2. The medium was standard DMEM (PanEco, Moscow, Russia) with penicillin-streptomycin (50 units/mL) (PanEco, Moscow, Russia) supplemented with 10% fetal bovine serum (PanEco, Russia). After this time, culture medium was replaced with a similar volume of Hanks’ solution (PanEco, Russia) with glucose added at a final concentration of 4.5 mg/mL. On the day of the experiment, serial dilutions of the compound in deionised water were made and 20 μL was added to the cell culture. The cell culture thus obtained was irradiated for 90 min using a Medical Therapy Philips TL 20W/52 lamp (wavelength 400–500 nm), power 2.3 mW. In parallel, the cell culture was incubated with the compound in the dark. After 90 min, in both cases, Hanks’ solution with the compound was replaced with DMEM medium without serum. The cell culture was then left for 24 h at 37 °C in 5% CO2 in the dark, after which 10 μL of MTT reagent solution (5 mg/mL, PanEco, Russia) was added and incubated for another 3.5 h. The formed formazan in cells was dissolved in 100 μL DMSO. The optical density of the solution was measured on a MultiScan MCC 340 spectrophotometer (Labsystems, Kennett Square, PA, USA) at 540 nm. Each series of experiments was repeated 3 times. […] Statistical processing of the obtained data was performed using Excel program package (Microsoft).
(§2) Cell viability study (MTT-test). The cytotoxicity of compounds 12 and 14 was studied on a Hep2 cell line (human laryngeal cancer) and NKE (human normal kidney epithelial), with and without irradiation. Two approaches were used when treating the cells. In the first case, compounds 12 and 14 were introduced into the cell culture only for the irradiation time (90 min). After that, the cell medium containing one of the compounds was removed. The cells were incubated in a fresh DMEM medium without compounds for a further 24 h, after which time the results were evaluated. The IC50 values were close for both cell lines (Table 4, Figure 5 and Figure S58). […] The results for the NKE cell line are presented in Table 4 and Figure S58 (Supporting Information).
(§3) In the second series of experiments, cell viability was evaluated 24 h after irradiation without removing the compound from the culture medium.

[3] = tested on: NKE (human normal kidney epithelial) cell line; assay: as above; format: cell-based
Experimental: as §1, §2, §3

[4] = Aggregation behaviour, UV-vis absorption and fluorescence spectra in DMF and aqueous solubiliser solutions; format: physicochemical
Experimental: Aggregation behavior, photophysical characterization and solubilisation studies. Photophysical properties of zinc complexes of amphiphilic meso-arylporphyrins and their conjugates with terpyridine were studied in DMF and aqueous solutions of different solubilisers. Stock solutions of 1 mM of the studied compounds in DMF were added upon stirring to a micellar aqueous solution of a solubiliser (3 mL). The final concentration of the porphyrins was 3.5 µM. UV-vis absorption spectra were recorded using HACH DR-4000V spectrophotometer (Hach-Lange, Loveland, CO, USA) within the wavelength range of 320–800 nm with a step of 1 nm in quartz cells (10 mm) at room temperature. Steady-state fluorescence spectra were recorded using Perkin Elmer LS-50 (USA) luminescent spectrometer under similar conditions with the Soret band maximum excitation. Fluorescence quantum yields (ΦF) for Zn(II) complexes in DMF were measured according to the procedure using ZnTPP as a standard (ΦF = 0.033).

[5] = as above; format: physicochemical; conditions: DMSO
[6] = Singlet oxygen quantum yield, DPBF oxidation in DMF, ZnTPP as standard; format: physicochemical; conditions: air-saturated, λ ≥ 500 nm
Text: Photochemical experiments for singlet oxygen quantum yield determination. Porphyrin-containing samples were irradiated in quartz cells at room temperature in air-saturated DMF solutions. Light source consisted of halogen lamp (150 W), thermal and UV filters, a three-lens spherical condenser with a reflector, and a cut-off filter (λ ≥ 500 nm). The light flux power was 10 mW/cm^2. The efficiency of photosensitised ^1O2 generation in porphyrin solutions was estimated from the dynamics of the absorbance decrease at 415 nm, corresponding to the absorption maximum of the selective ^1O2 acceptor-1,3-diphenylisobenzofuran (DPBF). DPBF was added to the solution of the tested compound in the dark immediately before the start of the photochemical experiment (CDPBF = 0.1 mM). […] The singlet oxygen quantum yield (ΦΔ) were calculated according to the known procedure with ZnTPP being a standard (ΦΔ = 0.74 in DMF).

[7] = standard; cited from earlier work
[8] = parameters: method as in PMID 17020252, PMID 24063545, doi:10.1002/(SICI)1099-1409(199803/04)2:2<145::AID-JPP60>3.0.CO; conditions: in DMF, standard; cited from earlier work

## O=P1(NCCCl)OCCCN1CCCl (centres unmarked) [ifosfamide]
[1]
  proportion of 'comet' cells: 36.1 ± 2.14%

## CCCCCCOc1ccc(-c2c3nc(c(-c4ccc(OCCCCCC)cc4)c4ccc([n-]4)c(-c4ccc(OCc5ccc(-c6cc(-c7ccccn7)nc(-c7ccccn7)c6)cc5)cc4)c4nc(c(-c5ccc(OCCCCCC)cc5)c5ccc2[n-]5)C=C4)C=C3)cc1.[Zn+2] [compound 12]
[2]; dark conditions, 24 h
  IC50: 2550 ± 280 nM
[2]; dark, […] incubation, studied concentration range
  toxic effect without irradiation: no toxic effect
[2]; light irradiation 8.073 J/cm^2, 24 h, compound not removed
  IC50: 2470 ± 233 nM
[2]; light irradiation 90 min, 8.073 J/cm^2, compound present […] then removed, read after 24 h
  IC50: 1870 ± 333 nM
[3]; dark conditions, 24 h
  IC50: 2440 ± 281 nM
[3]; light irradiation 8.073 J/cm^2, 24 h
  IC50: 2570 ± 320 nM
[3]; light irradiation 8.073 J/cm^2, […]
  IC50: 1700 ± 297 nM
[4]; 0.5 mM Tween-80, 1% Cremophor EL and 1% Pluronic F-127
  solubilisation: partial solubilisation
[4]; Brij-58 (0.5 mM)
  lgε: 5.15
  ΔλB (half-width of the Soret band): 28 nm
  λem, second band: 660 nm
[4]; Cremophor (1% Cremophor EL)
  lgε: 5.35
  ΔλB (half-width of the Soret band): 27 nm
  λem, second band: 655 nm
  λmax: 430
[4]; DMF
  molar absorption coefficient, times lower than for ZnTPP: 1.5 times
  λQ (first Q band): 560 nm
[4]; DMSO
  lgε: 5.70
[4]; H2O
  ΔλB (half-width of the Soret band): 36 nm
  λem, second band: 660 nm
[4]; Pluronic (1% Pluronic F-127)
  lgε: 5.36
  ΔλB (half-width of the Soret band): 22 nm
  λem, second band: 658 nm
[4]; TX-100 (1 mM)
  lgε: 5.34
  ΔλB (half-width of the Soret band): 25 nm
[4]; Tween-80 (0.5 mM)
  lgε: 5.40
  ΔλB (half-width of the Soret band): 19 nm
[5]
  ΔλB (half-width of the Soret band): 10 nm
[6]
  singlet oxygen quantum yield: about 65%

## C1=Cc2nc1c(-c1ccccc1)c1ccc([n-]1)c(-c1ccccc1)c1nc(c(-c3ccccc3)c3ccc([n-]3)c2-c2ccccc2)C=C1.[Zn+2] [ZnTPP]
[7]
  fluorescence quantum yield ΦF: 0.033
[8]
  singlet oxygen quantum yield ΦΔ: 0.74
